Test results as given in patent publication US20060141587A1, “Process for the preparation of L-3, 4-dihydroxyphenylalanine by aerobic fermentation of a microorganism” (DSM IP Assets B.V., priority 2002, published 2006).

How the values were obtained:
[1] = Stability of L-dopa during fed-batch fermentation with and without pH-shift; type: physicochemical, Escherichia coli
Protocol: Cultivations in a fermentor were conducted in a 2.0 L bioreactor (Labfors, Infors; Switzerland) with 10% inoculation; which was cultivated at 33° C. The cultivation started at pH 6.7. The mineral fermentation medium (see composition above) was directly sterilized in the bioreactor together with the calibrated pH- and Oxygen-sensors.
pH was controlled by 17.5% NH4OH (1:2 diluted) and a 5 N KOH solution. A separate glucose feed (500 g·^−1) was started when the OD620nm was higher than 5. At OD620nm 10, which was reached after about 14 hours Isopropyl-beta-D-thiogalactopyranoside (IPTG) was added to a final concentration of 0.1 mM. […]
Biomass (OD620nm) and L-dopa concentrations were determined by HPLC analysis (see example 5 for HPLC conditions) as a function of time (see: Table 1). The L-dopa concentration at 43 hours was related to 10.
A fermentation was performed describes as in example 6 with the following differences:
At OD620nm 5 (reached after 7 hours) IPTG was added.
The L-dopa concentration reached after 32 hours was related to 10.

[2] = Stability of L-dopa in fermentation broth adjusted to different pH, stored at room temperature (HPLC); type: physicochemical; details: for L-dopa concentration, fermentation broth at pH 4.5 (sample 4): pH 4.5, room temperature; for L-dopa concentration, fermentation broth at pH 4.5 (sample 4) / L-dopa concentration, fermentation broth at pH 5.5 (sample 3) / L-dopa concentration, fermentation broth at pH 6.5 (sample 2) / L-dopa concentration, fermentation broth at pH 7.5 (sample 1): broth at pH 4.5 related to 10; for L-dopa concentration, fermentation broth at pH 5.5 (sample 3): pH 5.5, room temperature; for L-dopa concentration, fermentation broth at pH 6.5 (sample 2): pH 6.5, room temperature; for L-dopa concentration, fermentation broth at pH 7.5 (sample 1): pH 7.5, room temperature
Protocol: (§1) To perform the HPLC analysis, the HPLC 1100 system of Aegilent (Waldbronn, Germany) with a Diode Array Detector was used. The compounds were measured at a wavelength of 200 nm. A Nucleosil-120-5-C18 column (250×4 mm) from Macherey-Nagel was used as the solid phase. The column was eluted using a gradient starting with eluent A (10 mM H3PO4) and eluent B (100% acetonitril). Gradient: 0 min 2% B, 25 min up to 90% B, 27 min to 30 min 2% B. The elution rate was set at 1.2 ml/min, the column temperature was set at 40° C.
A sample of the fermentation broth in which L-dopa is present, prepared as described in example 6, which had been adjusted to pH 7.5 (sample 1), pH 6.5 (sample 2), pH 5.5 (sample 3) and pH 4.5 (sample 4) was used. The samples 1, 2, 3 and 4 were stored at room temperature for 600 hours and L-dopa concentrations were determined at several points in time (up to 600 hours). L-dopa concentrations were determined by HPLC analysis as a function of time (see: Table 4) with the […], i.e. fermentation broth at pH 4.5, related to 10.

[3] = Storage stability of L-dopa in fermentation broth, extracted water phase and reextraction medium (reactive extraction, HPLC); type: physicochemical; details: for change of L-dopa concentration during storage: room temperature, up to 600 h; for relative L-dopa concentration of untreated fermentation broth (sample A, pH = 7.5): pH 7.5, stored at room temperature; for relative L-dopa concentration of water phase of fermentation broth extracted by kerosene/D2EHPA (sample B, pH acidic): stored at room temperature; for relative L-dopa concentration of re-extracted organic phase by KCl (sample C, pH = 6.3): pH 6.3, stored at room temperature
Protocol: as §1
A sample of the fermentation broth in which L-dopa is present, prepared as described in example 6, which had been adjusted to pH 7,5 (sample A), was used. 5 ml kerosene containing 10% D2EHPA (pH acidic) was mixed vigorously with the same volume of sample A for 30 seconds on a vortex mixer. After separation of the two phases (about 10 minutes) the water phase containing L-dopa, the extraction medium (sample B) was stored at room temperature. L-dopa dissolved in the organic phase was reextracted by mixing 2 ml of the organic phase with 1 ml of 1 M KCl (pH=6.3) by shaking vigorously for 30s. After separation of the two phases (about 10 minutes), the water phase containing L-dopa, the reextraction medium (sample C) was stored at room temperature. The samples A, B and C were stored at room temperature for 600 hours and L-dopa concentrations were determined at several points in time (up to 600 hours). L-dopa concentrations were determined by HPLC analysis as a function of time (see: Table 3).

N[C@@H](Cc1ccc(O)c(O)c1)C(=O)O [L-dopa, L-3,4-dihydroxyphenylalanine]
stability of L-dopa in the fermentation ([1]; fermentation at pH 6.7, no pH-shift): less stable
stability of L-dopa in the fermentation ([1]; fermentation with pH-shift from pH 6.7 to pH 5.8): stable
L-dopa concentration, fermentation broth at pH 4.5 (sample 4) ([2]; 24 h): 10
L-dopa concentration, fermentation broth at pH 4.5 (sample 4) ([2]; 96 h): 10
L-dopa concentration, fermentation broth at pH 4.5 (sample 4) ([2]; 168 h): 10
L-dopa concentration, fermentation broth at pH 4.5 (sample 4) ([2]; 336 h): 10
L-dopa concentration, fermentation broth at pH 4.5 (sample 4) ([2]; 408 h): 10
L-dopa concentration, fermentation broth at pH 4.5 (sample 4) ([2]; 504 h): 10
L-dopa concentration, fermentation broth at pH 4.5 (sample 4) ([2]; 600 h): 10
L-dopa concentration, fermentation broth at pH 5.5 (sample 3) ([2]; 24 h): 9
L-dopa concentration, fermentation broth at pH 5.5 (sample 3) ([2]; 96 h): 9
L-dopa concentration, fermentation broth at pH 5.5 (sample 3) ([2]; 168 h): 9
L-dopa concentration, fermentation broth at pH 5.5 (sample 3) ([2]; 336 h): 9
L-dopa concentration, fermentation broth at pH 5.5 (sample 3) ([2]; 408 h): 9
L-dopa concentration, fermentation broth at pH 5.5 (sample 3) ([2]; 504 h): 8
L-dopa concentration, fermentation broth at pH 5.5 (sample 3) ([2]; 600 h): 8
L-dopa concentration, fermentation broth at pH 6.5 (sample 2) ([2]; 24 h): 7
L-dopa concentration, fermentation broth at pH 6.5 (sample 2) ([2]; 96 h): 7
L-dopa concentration, fermentation broth at pH 6.5 (sample 2) ([2]; 168 h): 7
L-dopa concentration, fermentation broth at pH 6.5 (sample 2) ([2]; 336 h): 5
L-dopa concentration, fermentation broth at pH 6.5 (sample 2) ([2]; 408 h): 5
L-dopa concentration, fermentation broth at pH 6.5 (sample 2) ([2]; 504 h): 4
L-dopa concentration, fermentation broth at pH 6.5 (sample 2) ([2]; 600 h): 4
L-dopa concentration, fermentation broth at pH 7.5 (sample 1) ([2]; 24 h): 6
L-dopa concentration, fermentation broth at pH 7.5 (sample 1) ([2]; 96 h): 6
L-dopa concentration, fermentation broth at pH 7.5 (sample 1) ([2]; 168 h): 5
L-dopa concentration, fermentation broth at pH 7.5 (sample 1) ([2]; 336 h): 4
L-dopa concentration, fermentation broth at pH 7.5 (sample 1) ([2]; 408 h): 3
L-dopa concentration, fermentation broth at pH 7.5 (sample 1) ([2]; 504 h): 3
L-dopa concentration, fermentation broth at pH 7.5 (sample 1) ([2]; 600 h): 2
effect of pH of the fermentation broth on stability of L-dopa ([2]; pH 7.5 to 4.5, room temperature, up to 600 h): lower pH values of the fermentation broth increase the stability of L-dopa
change of L-dopa concentration during storage ([3]; after extraction of the broth with kerosene/D2EHPA (sample B, acidic pH)): decrease of concentration of L-dopa was nearly prevented
change of L-dopa concentration during storage ([3]; after re-extraction with KCl (sample C, pH 6.3)): no decrease of L-dopa concentration was observed
change of L-dopa concentration during storage ([3]; fermentation broth without kerosene/D2EHPA extraction (sample A, pH 7.5)): decreases during the storage time
relative L-dopa concentration of untreated fermentation broth (sample A, pH = 7.5) ([3]; 24 h): 0.7
relative L-dopa concentration of untreated fermentation broth (sample A, pH = 7.5) ([3]; 96 h): 0.7
relative L-dopa concentration of untreated fermentation broth (sample A, pH = 7.5) ([3]; 168 h): 0.6
relative L-dopa concentration of untreated fermentation broth (sample A, pH = 7.5) ([3]; 336 h): 0.5
relative L-dopa concentration of untreated fermentation broth (sample A, pH = 7.5) ([3]; 408 h): 0.4
relative L-dopa concentration of untreated fermentation broth (sample A, pH = 7.5) ([3]; 504 h): 0.4
relative L-dopa concentration of untreated fermentation broth (sample A, pH = 7.5) ([3]; 600 h): 0.3
relative L-dopa concentration of water phase of fermentation broth extracted by kerosene/D2EHPA (sample B, pH acidic) ([3]; 24 h): 0.8
relative L-dopa concentration of water phase of fermentation broth extracted by kerosene/D2EHPA (sample B, pH acidic) ([3]; 96 h): 0.7
relative L-dopa concentration of water phase of fermentation broth extracted by kerosene/D2EHPA (sample B, pH acidic) ([3]; 168 h): 0.7
relative L-dopa concentration of water phase of fermentation broth extracted by kerosene/D2EHPA (sample B, pH acidic) ([3]; 336 h): 0.8
relative L-dopa concentration of water phase of fermentation broth extracted by kerosene/D2EHPA (sample B, pH acidic) ([3]; 408 h): 0.7
relative L-dopa concentration of water phase of fermentation broth extracted by kerosene/D2EHPA (sample B, pH acidic) ([3]; 504 h): 0.8
relative L-dopa concentration of water phase of fermentation broth extracted by kerosene/D2EHPA (sample B, pH acidic) ([3]; 600 h): 0.7
relative L-dopa concentration of re-extracted organic phase by KCl (sample C, pH = 6.3) ([3]; 24 h): 0.3
relative L-dopa concentration of re-extracted organic phase by KCl (sample C, pH = 6.3) ([3]; 96 h): 0.3
relative L-dopa concentration of re-extracted organic phase by KCl (sample C, pH = 6.3) ([3]; 168 h): 0.3
relative L-dopa concentration of re-extracted organic phase by KCl (sample C, pH = 6.3) ([3]; 336 h): 0.4
relative L-dopa concentration of re-extracted organic phase by KCl (sample C, pH = 6.3) ([3]; 408 h): 0.4
relative L-dopa concentration of re-extracted organic phase by KCl (sample C, pH = 6.3) ([3]; 504 h): 0.4
relative L-dopa concentration of re-extracted organic phase by KCl (sample C, pH = 6.3) ([3]; 600 h): 0.4
